Molecular target: T1, MDM2 protein (Homo sapiens, UniProt Q00987)
T1 construct: an endogenous wild-type p53 protein and MDM2 protein in HCT116 cells (human large intestine cancer cells); endogenous in cells; host or cells: HCT116 cells
Experiment: Degradation of endogenous MDM2 protein in HCT116 cells, Western blot analysis
Format: cell-based
Conditions: 48 hours after addition
Experimental: HCT116 cells were seeded in a 24-well plate at a cell density of 8×10^4 cells/well, and then cultured under conditions of 37° C. and 5 vol % CO2 for 16 hours.
After 16 hours from cell seeding, TIBC-CANDDY_MLN or TIBC was added to HCT116 cells as follows. As a medium, a serum-free medium (37° C.) in which 1 mass % L-glutamine solution (Sigma-Aldrich) was added to D-MEM (high D-glucose, phenol red, sodium pyruvate (Wako Pure Chemical Industries, Ltd.)) was used. It is noted that the L-glutamine solution was added immediately before use. A DMSO solution containing TIBC-CANDDY_MLN or TIBC was mixed with the medium so that the concentration of DMSO was 1 vol %, and added to each well at 500 μL/well, and cultured under conditions of 37° C. and 5 vol % CO2. As a control, DMSO was used.
The medium was removed 48 hours after addition of TIBC-CANDDY_MLN or TIBC, and then PBS was added to wash the cells. […]
After electrophoresis, proteins were transferred to a PVDF membrane (Immobion™-P, Millipore) under conditions of 100 V and 2 hours using a tank-type blotting device and a transfer buffer (25 mM Tris-HCl, 195 mM glycine, 0.01% SDS, 15% methanol). […] Subsequently, the membrane was treated with a chemiluminescence reagent Immobilon™ Western (Millipore), and then chemiluminescence was detected using a lumino image analyzer LAS-3000 (FUJIFILM Corporation).

T1 sequence (Q00987 whole entry): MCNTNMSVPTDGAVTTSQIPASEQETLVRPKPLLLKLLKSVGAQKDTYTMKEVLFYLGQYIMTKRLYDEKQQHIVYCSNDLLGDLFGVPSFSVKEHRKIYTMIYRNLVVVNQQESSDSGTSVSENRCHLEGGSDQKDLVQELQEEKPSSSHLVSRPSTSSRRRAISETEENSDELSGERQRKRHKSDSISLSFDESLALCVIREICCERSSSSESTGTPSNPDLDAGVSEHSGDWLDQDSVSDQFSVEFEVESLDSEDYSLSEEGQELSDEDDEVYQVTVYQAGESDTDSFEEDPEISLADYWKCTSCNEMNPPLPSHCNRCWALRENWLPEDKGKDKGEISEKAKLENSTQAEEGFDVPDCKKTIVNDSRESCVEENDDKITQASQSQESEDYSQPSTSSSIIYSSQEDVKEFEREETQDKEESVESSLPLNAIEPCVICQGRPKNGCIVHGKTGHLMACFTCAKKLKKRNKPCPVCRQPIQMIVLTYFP

CC(C)C[C@H](NC(=O)CNC(=O)c1cc(Cl)ccc1Cl)C(=O)NCCCCCCC(=O)Nc1ccc(C(=O)/C=C/c2ccc(I)cc2)cc1 [TIBC-CANDDY_MLN]
amount of endogenous MDM2 protein: reduced

Source: US20190369111A1, “MOLECULAR KINETICS EVALUATION METHOD AND SCREENING METHOD” (Tokyo University of Science Foundation, priority 2016, published 2019)
